Eight compounds from patent US9944618B2, “Inhibiting neurotransmitter reuptake” (Mayo Foundation for Medical Education and Research, priority 2013, dated 2018) can be followed below.

For data set [1], the target named is human norepinephrine transporter (Homo sapiens (Human), UniProt P23975). Kind of data set: Human NET (norepinephrine transporter) uptake assay. The class given is cell-based. As to conditions: read-out: hNET Ki. An outline of the steps:
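HEK293F cells transfected with human NET were thawed, plated at about 60,000 cells/well and held at 37 °C for at least 3 h. Compounds came from 10 mM DMSO stocks, with nomifensine as control, in 1×HBSS/0.02 M HEPES. Uptake was followed with a neurotransmitter transporter dye, dosed as % of vendor reconstitution, in triplicate.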

Data set [2] addresses human dopamine transporter (Homo sapiens (Human), UniProt Q01959). Kind of data set: Human DAT (dopamine transporter) uptake assay. The class given is cell-based. As to conditions: read-out: hDAT Ki. Summed up:
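Uptake inhibition was measured in HEK293F cells transfected with human DAT, plated at ~60,000 cells/well and settled ≥3 h at 37 °C. Compounds came from 10 mM DMSO stocks. Read-out was uptake of a fluorescent neurotransmitter transporter dye in HBSS with 0.02 M HEPES, with dye level given as % of vendor reconstitution; n=3.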

Data set [3] addresses human serotonin transporter (Homo sapiens (Human), UniProt P31645). Kind of data set: Human SERT (serotonin transporter) uptake assay. Type of data set: cell-based. The settings on record: read-out: hSERT Ki. An outline of the steps: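 HEK293F cells transfected with human SERT, about 60,000 per well, settled for ≥3 h at 37° C before compound addition. Uptake was followed with a fluorescent transporter dye in HBSS with 0.02 M HEPES. Background came from 10 μM fluoxetine, nomifensine was the control, n=3.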

A further data set has as its target hERG (Homo sapiens (Human), UniProt Q12809). The data set can be described thus: Human ERG (hERG) assay, hERG currents in hERG-expressing CHO cells. Type of data set: cell-based. The settings on record: hERG-expressing CHO cells. (In general: Block of hERG is tested as a sign of cardiac risk.)
Another data set concerns the target CYP3A4 (Homo sapiens (Human), UniProt P08684). The data set can be described thus: Cytochrome P450 inhibition assay, recombinant CYP3A4 (BFC substrate). The class given is in vitro ADME. The settings on record: recombinant enzyme.
A further data set deals with CYP2D6 (Homo sapiens (Human), UniProt P10635). Kind of data set: Cytochrome P450 inhibition assay, recombinant CYP2D6 (MAMC substrate). Type of data set: in vitro ADME. The settings on record: recombinant enzyme.
Chain of CYP2D6 (P10635 whole entry): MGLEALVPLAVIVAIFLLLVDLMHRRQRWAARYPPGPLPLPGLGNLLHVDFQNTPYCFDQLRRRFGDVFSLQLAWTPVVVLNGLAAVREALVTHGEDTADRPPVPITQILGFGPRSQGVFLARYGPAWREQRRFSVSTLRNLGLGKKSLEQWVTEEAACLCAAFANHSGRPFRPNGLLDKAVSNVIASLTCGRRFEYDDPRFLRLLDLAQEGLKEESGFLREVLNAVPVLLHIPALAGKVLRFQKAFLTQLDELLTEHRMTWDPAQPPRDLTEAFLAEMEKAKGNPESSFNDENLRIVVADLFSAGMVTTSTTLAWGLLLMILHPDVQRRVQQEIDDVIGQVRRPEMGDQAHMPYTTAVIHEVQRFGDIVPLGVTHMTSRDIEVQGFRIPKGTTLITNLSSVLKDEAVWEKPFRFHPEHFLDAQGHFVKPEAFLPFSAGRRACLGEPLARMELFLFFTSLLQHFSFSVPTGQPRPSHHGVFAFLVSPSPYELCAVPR
The nature of data set [4]: pKa of basic centres (Table 1). Type of data set: physicochemical.
Setting [5] is: first base, e.g., an aliphatic primary, secondary, or tertiary amine, read-out: pKa (Base 1).
Where [6] appears, read: second base in the same molecule (if present), read-out: pKa (Base 2).

The structures appear in SMILES notation. Read-outs that look alike come from different tables or passages of the source.

By Ki is commonly meant a measure of affinity in units of concentration, obtained from inhibition or displacement. One may read the IC50 as the midpoint of a concentration-inhibition curve. Usually pKa stands for the negative logarithm of the acid dissociation constant.

Chain of human serotonin transporter (P31645 whole entry): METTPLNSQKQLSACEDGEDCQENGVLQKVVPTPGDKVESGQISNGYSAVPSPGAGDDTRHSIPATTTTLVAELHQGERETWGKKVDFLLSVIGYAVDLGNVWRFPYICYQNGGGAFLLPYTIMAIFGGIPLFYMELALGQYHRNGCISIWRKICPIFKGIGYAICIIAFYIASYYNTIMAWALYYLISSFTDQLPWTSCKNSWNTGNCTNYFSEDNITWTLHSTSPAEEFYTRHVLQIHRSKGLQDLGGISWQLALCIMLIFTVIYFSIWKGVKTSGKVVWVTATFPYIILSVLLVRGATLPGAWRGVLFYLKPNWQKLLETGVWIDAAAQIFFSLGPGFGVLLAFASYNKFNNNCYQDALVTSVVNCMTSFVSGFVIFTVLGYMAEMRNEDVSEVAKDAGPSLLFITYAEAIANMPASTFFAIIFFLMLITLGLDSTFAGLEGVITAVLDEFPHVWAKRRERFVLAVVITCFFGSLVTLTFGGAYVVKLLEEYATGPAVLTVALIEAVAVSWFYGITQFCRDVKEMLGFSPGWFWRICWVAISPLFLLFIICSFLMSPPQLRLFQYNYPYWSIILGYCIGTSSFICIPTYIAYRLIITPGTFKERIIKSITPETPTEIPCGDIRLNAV
Chain of hERG (Q12809 whole entry): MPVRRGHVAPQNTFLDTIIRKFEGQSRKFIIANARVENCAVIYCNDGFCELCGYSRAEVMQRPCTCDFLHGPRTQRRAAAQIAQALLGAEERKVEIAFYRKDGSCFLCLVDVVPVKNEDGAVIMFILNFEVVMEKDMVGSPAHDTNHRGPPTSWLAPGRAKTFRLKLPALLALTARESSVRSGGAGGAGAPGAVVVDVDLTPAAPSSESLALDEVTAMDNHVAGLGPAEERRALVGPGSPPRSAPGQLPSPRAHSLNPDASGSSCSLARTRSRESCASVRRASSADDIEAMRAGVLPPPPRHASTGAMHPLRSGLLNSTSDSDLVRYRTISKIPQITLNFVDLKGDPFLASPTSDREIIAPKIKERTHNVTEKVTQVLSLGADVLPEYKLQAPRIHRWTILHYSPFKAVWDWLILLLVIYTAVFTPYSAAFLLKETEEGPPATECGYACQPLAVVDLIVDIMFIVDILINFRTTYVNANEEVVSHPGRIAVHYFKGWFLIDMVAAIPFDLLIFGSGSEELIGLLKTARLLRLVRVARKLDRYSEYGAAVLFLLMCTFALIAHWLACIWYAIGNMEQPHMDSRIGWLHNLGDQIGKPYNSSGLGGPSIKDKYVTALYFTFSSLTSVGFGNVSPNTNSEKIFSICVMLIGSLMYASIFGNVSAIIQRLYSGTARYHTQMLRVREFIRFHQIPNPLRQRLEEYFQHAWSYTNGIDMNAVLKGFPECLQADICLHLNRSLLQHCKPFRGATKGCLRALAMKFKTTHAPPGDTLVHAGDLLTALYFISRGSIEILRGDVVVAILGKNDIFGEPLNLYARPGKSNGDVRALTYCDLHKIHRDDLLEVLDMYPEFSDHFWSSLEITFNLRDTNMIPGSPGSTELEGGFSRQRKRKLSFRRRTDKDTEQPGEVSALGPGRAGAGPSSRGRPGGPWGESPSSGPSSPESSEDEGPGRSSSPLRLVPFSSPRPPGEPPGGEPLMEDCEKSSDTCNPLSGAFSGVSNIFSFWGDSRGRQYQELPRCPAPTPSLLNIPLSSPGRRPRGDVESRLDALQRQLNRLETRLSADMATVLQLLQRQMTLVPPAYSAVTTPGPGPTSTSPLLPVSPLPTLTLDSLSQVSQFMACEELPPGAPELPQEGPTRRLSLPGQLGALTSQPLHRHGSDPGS
Chain of CYP3A4 (P08684 whole entry): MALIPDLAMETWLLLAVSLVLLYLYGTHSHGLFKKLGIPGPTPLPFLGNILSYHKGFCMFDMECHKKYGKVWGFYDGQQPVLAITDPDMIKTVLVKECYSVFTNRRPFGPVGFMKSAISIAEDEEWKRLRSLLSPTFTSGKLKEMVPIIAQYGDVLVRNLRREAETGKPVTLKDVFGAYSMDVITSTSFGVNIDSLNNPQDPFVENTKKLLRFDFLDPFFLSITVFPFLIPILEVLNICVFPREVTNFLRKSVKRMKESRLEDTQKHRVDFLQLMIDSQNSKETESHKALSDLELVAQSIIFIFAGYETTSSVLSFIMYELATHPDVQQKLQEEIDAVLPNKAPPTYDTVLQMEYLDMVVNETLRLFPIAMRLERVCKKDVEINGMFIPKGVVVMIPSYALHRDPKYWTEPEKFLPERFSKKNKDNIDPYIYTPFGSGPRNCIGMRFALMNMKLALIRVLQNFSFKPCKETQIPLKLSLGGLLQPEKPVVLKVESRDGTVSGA
Chain of human norepinephrine transporter (P23975 whole entry): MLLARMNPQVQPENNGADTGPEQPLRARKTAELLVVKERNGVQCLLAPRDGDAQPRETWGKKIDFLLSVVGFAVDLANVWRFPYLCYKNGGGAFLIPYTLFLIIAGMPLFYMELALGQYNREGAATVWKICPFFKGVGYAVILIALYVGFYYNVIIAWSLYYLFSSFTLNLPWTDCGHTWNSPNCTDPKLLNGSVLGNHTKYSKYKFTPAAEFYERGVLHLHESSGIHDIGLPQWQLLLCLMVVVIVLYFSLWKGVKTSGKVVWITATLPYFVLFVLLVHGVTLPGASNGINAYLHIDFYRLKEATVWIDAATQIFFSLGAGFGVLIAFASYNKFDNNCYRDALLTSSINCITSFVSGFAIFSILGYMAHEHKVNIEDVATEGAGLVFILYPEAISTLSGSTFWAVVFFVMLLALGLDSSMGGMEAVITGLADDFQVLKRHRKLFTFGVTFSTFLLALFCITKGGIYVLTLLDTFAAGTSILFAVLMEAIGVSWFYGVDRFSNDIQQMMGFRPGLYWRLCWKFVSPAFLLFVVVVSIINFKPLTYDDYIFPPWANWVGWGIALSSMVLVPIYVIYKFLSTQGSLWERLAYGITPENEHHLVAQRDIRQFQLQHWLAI
Chain of human dopamine transporter (Q01959 whole entry): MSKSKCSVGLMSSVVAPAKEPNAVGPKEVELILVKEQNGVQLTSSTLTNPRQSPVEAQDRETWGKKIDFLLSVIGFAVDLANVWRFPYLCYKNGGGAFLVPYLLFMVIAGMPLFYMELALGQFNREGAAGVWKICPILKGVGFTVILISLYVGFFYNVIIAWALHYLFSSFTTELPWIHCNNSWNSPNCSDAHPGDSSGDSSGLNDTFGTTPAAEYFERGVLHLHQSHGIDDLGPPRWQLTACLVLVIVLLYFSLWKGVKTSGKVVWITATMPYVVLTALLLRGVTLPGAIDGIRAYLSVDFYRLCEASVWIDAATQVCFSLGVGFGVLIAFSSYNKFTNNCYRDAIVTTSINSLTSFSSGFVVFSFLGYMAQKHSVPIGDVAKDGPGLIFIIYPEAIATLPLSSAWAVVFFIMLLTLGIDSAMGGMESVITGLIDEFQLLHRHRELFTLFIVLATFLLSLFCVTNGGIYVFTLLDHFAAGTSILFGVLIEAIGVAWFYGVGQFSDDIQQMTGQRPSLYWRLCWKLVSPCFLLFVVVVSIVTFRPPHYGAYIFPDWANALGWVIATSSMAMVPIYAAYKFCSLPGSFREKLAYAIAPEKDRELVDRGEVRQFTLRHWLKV
Experimental for CYP2D6: Recombinant enzymes, 3A4 and 2D6, generated using the ABL yeast expression system were used. […] The assay mixture also included K2HPO4 (pH 7.4; conc. 0.1 M) and NADPH (conc. 1 mM). The incubation time was 30 minutes, and the reference inhibitor was A-naphthoflavone. For CYP2D6, the enzyme amount was 2 pmol per well, and the substrate (7-methoxy-4-(aminomethyl)-coumarin; MAMC) was used at 20 μM. The assay mixture also included K2HPO4 (pH 7.4; conc. 0.1 M) and NADPH (conc. 0.06 mM). The incubation time was 35 minutes, and the reference inhibitor was quinidine.
Briefly, 0.6 μL of serially diluted compound was added to 75 μL water. 10 μL of diluted compound in water was then added to each assay plate. 20 μL of a K2HPO4, enzyme, and substrate mixture was added. After 10 minutes of room temperature pre-incubation, 10 μL of NADPH was added, and the plates were placed at 37° C. for 30 or 35 minutes depending on the enzyme being tested. After the incubation was complete, 20 μL of 0.1% Tris/ACN was added to the plate. The plate was read on a FluorStar fluorescence plate reader.

Turning to `CNC[C@@H](c1ccc2ccccc2c1)[C@@H](O)c1ccc2c(c1)OCCO2` (racemic) [Compound 145], the Ki worked out at 10.9 nM in data set [1], 134 nM in data set [2] and 9.4 nM in data set [3]. Also, the results for the IC50 on hERG, at CYP3A4 and at CYP2D6 were 11 µM, 19 µM and 310 nM, respectively. The pKa in data set [4] (setting [5]) came out at 9.7.

Regarding `CNCC(Cc1ccccc1OC)c1ccc2ccccc2c1` (stereo not shown) [Compound 57], the Ki worked out at 5 nM in data set [1], 20.2 nM in data set [2] and 5.9 nM in data set [3]. Further, the IC50 was determined as 4.7 µM at hERG, 3.3 µM at CYP3A4 and 190 nM at CYP2D6. Also, the pKa in data set [4] (setting [5]) was 10.1.

Consider `CNC[C@@H](c1ccc2ccccc2c1)[C@@H](O)c1cccnc1` [Compound 49], for which the values for the Ki in data set [1], in data set [2] and in data set [3] were 3.8 nM, 213 nM and 5.6 nM, respectively. Besides, the IC50 on hERG was 25 µM; at CYP3A4, 20 µM; on CYP2D6, 1700 nM. Also, the pKa in data set [4] (setting [5]) was found to be 9.6; in data set [4] (setting [6]), 5.1.

Take `CNC[C@H](c1ccc(Cl)c(Cl)c1)[C@@H](O)c1cccc(I)c1` [Compound 165]: the Ki in data set [1] amounted to 38.6 nM; in data set [2], 118 nM; in data set [3], 341 nM. For the same compound, the IC50 against hERG amounted to 3.8 µM; on CYP3A4, 2.9 µM; at CYP2D6, 81 nM. The pKa in data set [4] (setting [5]) is 9.4.

As to `CNC[C@H](c1ccc(Cl)c(Cl)c1)[C@@H](O)c1ccccc1[N+](=O)[O-]` [Compound 65], the Ki was found to be 7.5 nM in data set [1], 18.1 nM in data set [2] and 243 nM in data set [3]. The values for the IC50 on hERG, at CYP3A4 and on CYP2D6 were 19 µM, 7.8 µM and 43 nM, respectively. Further, the pKa in data set [4] (setting [5]) is 9.3.

As to `CNC[C@H](c1ccc2ccccc2c1)[C@H](OCC(=O)N1CCOCC1)c1ccccc1` [Compound 23], the Ki in data set [1] is 2 nM; in data set [2] it was 65.6 nM; in data set [3], 5.6 nM. Further, the IC50 turned out to be 21 µM at hERG, 20 µM at CYP3A4 and 4900 nM on CYP2D6. The pKa in data set [4] (setting [5]) turned out to be 9.6.

Regarding `CNC[C@H](c1ccc2ccccc2c1)[C@H](O)c1cccnc1` (racemic) [Compound 62], the Ki in data set [1] worked out at 6.5 nM; in data set [2], 45 nM; in data set [3] it was 9.9 nM. For the same compound, the IC50 against hERG was 25 µM; on CYP3A4 it was at least 20 µM; at CYP2D6, 1000 nM. The pKa in data set [4] (setting [5]) is 9.6; in data set [4] (setting [6]) it was 5.1.

With `CNCC(Cc1ccccc1C)c1ccc2ccccc2c1` (stereo not shown) [Compound 39], the Ki in data set [1] was 3.1 nM; in data set [2], 34.3 nM; in data set [3], 12.6 nM. Besides, the IC50 stood at 8.2 µM against hERG, 8.4 µM at CYP3A4 and 170 nM on CYP2D6. Further, the “pKa (Base 1)” value in data set [4] (first base, e.g., an aliphatic primary, secondary, or tertiary amine) came to 10.1.
